Among the data in patent US20250049970A1, “DLL3 TARGETING PEPTIDES AND CONSTRUCTS THEREOF” (MARIANA ONCOLOGY INC., priority 2023, published 2025) are Kd values, retold here.

*1 amine or outer side, *2 acyl side, *3 side chain or, on linkers, in order; H or OH if unused. Where a SMILES comes first, the peptide text is derived from it. Bridges are numbered along the chain shown (N, C = ends). [ ]: non-standard residue; d: D form. The star is where a group is joined. ξ: configuration not given here. X9 = CSCC[C@H](NC(=O)c1ccc(CNC(=O)CN2CCN(CC(=O)O)CCN(CC(=O)O)CCN(CC(=O)O)CC2)cc1)C(=O)N[C@H](C(=O)N[C@@H](CCCCN*)C(=O)O)C(C)C; X10 = O=C(O)CN1CCN(CC(=O)O)CCN(CC(=O)NC2CCC(CC(=O)*)CC2)CCN(CC(=O)O)CC1; Ala(piperidin-4-yl) = O=C([C@H](CC1CCN([*:3])CC1)N[*:1])[*:2]; DOTA = O=C(O)CN1CCN(CC(=O)O)CCN(CC(=O)*)CCN(CC(=O)O)CC1; Trp(7-OMe) = COc1cccc2c(C[C@H](N)C(=O)O)c[nH]c12; Trp(7-Me) = Cc1cccc2c(C[C@H](N)C(=O)O)c[nH]c12; 2Nal = N[C@@H](Cc1ccc2ccccc2c1)C(=O)O; Chg = N[C@H](C(=O)O)C1CCCCC1; NMeNle = CCCC[C@H](NC)C(=O)O; ξN = NC(=O)CC(N)C(=O)O; CH2 = C([*:1])[*:2]; ξP = O=C(O)C1CCCN1 Bounds are passed on as bounds.

What is called Kd is the free concentration of one partner at which half of the binding sites on the other are occupied at equilibrium, for simple one-to-one binding.

The test deals with T1, DLL3 (Homo sapiens, UniProt Q9NYJ7).
T1 sequence (Q9NYJ7 27-618): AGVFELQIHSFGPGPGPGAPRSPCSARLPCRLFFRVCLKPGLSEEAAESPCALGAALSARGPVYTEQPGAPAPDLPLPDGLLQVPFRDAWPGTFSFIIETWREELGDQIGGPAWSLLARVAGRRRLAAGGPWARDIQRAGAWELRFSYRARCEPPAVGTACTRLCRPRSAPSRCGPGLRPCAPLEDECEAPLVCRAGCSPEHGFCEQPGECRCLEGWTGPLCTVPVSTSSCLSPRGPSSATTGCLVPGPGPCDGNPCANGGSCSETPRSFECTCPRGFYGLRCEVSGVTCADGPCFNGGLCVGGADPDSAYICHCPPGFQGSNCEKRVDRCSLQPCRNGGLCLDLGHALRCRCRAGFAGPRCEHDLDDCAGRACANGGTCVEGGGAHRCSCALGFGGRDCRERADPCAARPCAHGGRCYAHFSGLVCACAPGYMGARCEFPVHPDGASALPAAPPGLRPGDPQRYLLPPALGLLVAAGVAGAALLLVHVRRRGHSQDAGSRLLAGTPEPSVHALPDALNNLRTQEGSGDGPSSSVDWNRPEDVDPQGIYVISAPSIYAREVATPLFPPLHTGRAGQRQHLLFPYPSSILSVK
Briefly: SPR KD, biotinylated human DLL3 on streptavidin chip (Table 8). Also noted: biotin (biotinylated). To be noted: biotinylated human DLL3 on streptavidin sensor chip, 25° C., 1:1 binding model; read-out: SPR KD. The source says:
Biotinylated target ligand human DLL3 was immobilized on a streptavidin sensor chip. A reference surface was set up for nonspecific binding and refractive index changes. […] Sensorgram curves were fitted with 1:1 binding model, and affinity and kinetic parameters were obtained using Biacore Insight evaluation 4.0. software.

With `CSCC[C@H](NC(=O)c1ccc(CNC(=O)CN2CCN(CC(=O)O)CCN(CC(=O)O)CCN(CC(=O)O)CC2)cc1)C(=O)N[C@H](C(=O)N[C@@H](CCCCNC(=O)CC[C@@H]1NC(=O)[C@H](Cc2ccc3ccccc3c2)NC(=O)[C@H](CC(N)=O)NC(=O)[C@H](CC2CCNCC2)NC(=O)[C@@H](NC(=O)[C@@H](NC(=O)[C@@H](NC(=O)[C@H](Cc2c[nH]c3ccccc23)NC(C)=O)[C@@H](C)O)C2CCCCC2)CSCSC[C@@H](C(=O)N[C@@H](Cc2c[nH]c3ccccc23)C(=O)N2CCC[C@H]2C(N)=O)NC(=O)[C@H](CC(=O)O)NC1=O)C(=O)O)C(C)C` [compound 425] (Ac-WT[Chg]C[Ala(piperidin-4-yl)]N[2Nal]E(X9)DCWP-NH2; linker 4-10 via CH2), the Kd was less than 1 nM. The value for `CC(=O)N[C@@H](Cc1c[nH]c2c(C)cccc12)C(=O)N[C@H](C(=O)N[C@H](C(=O)N[C@H]1CSCSC[C@@H](C(=O)N[C@@H](Cc2c[nH]c3ccccc23)C(=O)N2CCC[C@H]2C(N)=O)NC(=O)[C@H](CC(=O)O)NC(=O)[C@H](CCCCNC(=O)CN2CCN(CC(=O)O)CCN(CC(=O)O)CCN(CC(=O)O)CC2)NC(=O)[C@H](Cc2ccc3ccccc3c2)NC(=O)[C@H](CC(N)=O)NC(=O)[C@H](CC2CCNCC2)NC1=O)C1CCCCC1)[C@@H](C)O` [compound 428, Ac-(7Me-Trp)-T-(Chg)-C(1)-[3-(4-piperidinyl)-Ala]-N-(2Nal)-Lys(DOTA)-D-C(1)-W-P-NH2] (Ac-[Trp(7-Me)]T[Chg]C[Ala(piperidin-4-yl)]N[2Nal]K(DOTA)DCWP-NH2; linker 4-10 via CH2) was less than 1 nM.

As to `COc1cccc2c(C[C@H](NC(C)=O)C(=O)N[C@H](C(=O)N[C@H](C(=O)N[C@H]3CSCSC[C@@H](C(=O)N[C@@H](Cc4c[nH]c5ccccc45)C(=O)N4CCCC4C(N)=O)NC(=O)[C@H](CC(=O)O)NC(=O)[C@H](CCCCNC(=O)CN4CCN(CC(=O)O)CCN(CC(=O)O)CCN(CC(=O)O)CC4)NC(=O)[C@H](Cc4ccc5ccccc5c4)NC(=O)[C@H](CC(N)=O)NC(=O)[C@H](CC4CCNCC4)NC3=O)C3CCCCC3)[C@@H](C)O)c[nH]c12` (stereo partly drawn) [compound 430, Ac-(7MeO-Trp)-T-(Chg)-C(1)-[3-(4-piperidinyl)-Ala]-N-(2Nal)-Lys(DOTA)-D-C(1)-W-P-CONH2] (Ac-[Trp(7-OMe)]T[Chg]C[Ala(piperidin-4-yl)]N[2Nal]K(DOTA)DCW[ξP]-NH2; linker 4-10 via CH2), the Kd was less than 1 nM. Consider `CCCC[C@@H](C(=O)N[C@H]1CSCSC[C@@H](C(=O)N[C@@H](Cc2c[nH]c3ccccc23)C(=O)N2CCC[C@H]2C(N)=O)NC(=O)[C@H](CC(=O)O)NC(=O)[C@H](CCCCNC(=O)CN2CCN(CC(=O)O)CCN(CC(=O)O)CCN(CC(=O)O)CC2)NC(=O)[C@H](Cc2ccc3ccccc3c2)NC(=O)[C@H](CC(N)=O)NC(=O)[C@H](CC2CCNCC2)NC1=O)N(C)C(=O)[C@@H](NC(=O)[C@H](Cc1c[nH]c2c(C)cccc12)NC(C)=O)[C@@H](C)O` [compound 431, Ac-(7Me-Trp)-T-(NMe-Nle)-C(1)-[3-(4-piperidinyl)-Ala]-N-(2Nal)-Lys(DOTA)-D-C(1)-W-P-CONH2] (Ac-[Trp(7-Me)]T[NMeNle]C[Ala(piperidin-4-yl)]N[2Nal]K(DOTA)DCWP-NH2; linker 4-10 via CH2), for which the equilibrium dissociation constant (Kd) was less than 1 nM. As to `CC(=O)N[C@@H](Cc1c[nH]c2ccccc12)C(=O)N[C@H](C(=O)N[C@H](C(=O)N[C@H]1CSCSC[C@@H](C(=O)N[C@@H](Cc2c[nH]c3ccccc23)C(=O)N2CCC[C@H]2C(N)=O)NC(=O)[C@H](CC(=O)O)NC(=O)[C@H](CCCCNC(=O)CC2CCC(NC(=O)CN3CCN(CC(=O)O)CCN(CC(=O)O)CCN(CC(=O)O)CC3)CC2)NC(=O)[C@H](Cc2ccc3ccccc3c2)NC(=O)C(CC(N)=O)NC(=O)[C@H](CC2CCNCC2)NC1=O)C1CCCCC1)[C@@H](C)O` (stereo partly drawn) [compound 432, Ac-W-T-(Chg)-C(1)-[3-(4-piperidinyl)-Ala]-N-(2Nal)-Lys(Chx-DOTA)-D-C(1)-W-P-CONH2] (Ac-WT[Chg]C[Ala(piperidin-4-yl)][ξN][2Nal]K(X10)DCWP-NH2; linker 4-10 via CH2), the Kd was less than 1 nM.
